Results reported in patent US4870097A, “Pharmaceutical use of derivatives of tryptophan” (priority 1984, dated 1989).

Experiments:
[1] = system: analgesic activity of morphine; experiment: Tail Flick Test: increase in the analgesic effect of morphine; format: in vivo, rats; conditions: for percentage variation in the latency of the pain sensation, 10' / percentage variation in the latency of the pain sensation, 20' / percentage variation in the latency of the pain sensation, 30' / percentage variation in the latency of the pain sensation, 45' / percentage variation in the latency of the pain sensation, 60' / percentage variation in the latency of the pain sensation, 90' / M(10'-90') average percentage variation: compound 10 mg/kg i.p. + morphine 2 mg/kg (row Morphine: alone); for percentage variation in the latency of the pain sensation, 10' / percentage variation in the latency of the pain sensation, 20' / percentage variation in the latency of the pain sensation, 30' / percentage variation in the latency of the pain sensation, 45' / percentage variation in the latency of the pain sensation, 60' / percentage variation in the latency of the pain sensation, 90': ± S.E.; for M(10'-90') average percentage variation: mean 10'-90'; for Potency ratio relative to morphine alone: rat, in vivo
Method: Increase in the analgesic effect of analgesic-narcotic drugs in rats in the Tail Flick Test
The method is that described by Harris et al. (J. Pharmacol. Exp. Ther. 143 (1964) 141-148).
Male rats are used which have a weight of about 150-200 g and which have not been fasting. A point is chosen on the tail and this is irradiated by a heat source (75° C.) and the time (in seconds) for which the animal remains without moving its tail is measured.
A maximum period of time under the heat source of 8 seconds is chosen after which the animal is, in any case, removed in order to avoid tissue damage. The measurement is effected before (controls) and after treatment with the drugs.
. The percentage variation is calculated for each individual animal by the following formula: [formula] The measurements are carried out 10, 20, 30, 45, 60 and 90 minutes after treatment with the analgesics.
The results obtained are given in Table 1 which records the groups treated and the doses administered, the
average percentage variations (calculated on groups of five animals) in […]

[2] = system: guinea pig gall bladder contracted with CCK-8; experiment: Anti-CCK activity on guinea pig gall bladders in vitro; format: biochemical; conditions: CCK-8 10 ng/ml, concentration antagonising 50% of contracting effect
Method: A longitudinal strip of guinea pig gall bladder is placed in a bath of Krebs for isolated organs at a temperature of 32° C. and oxygenated continuously with an oxygen-CO2 mixture (95-5 V/V).
The […] contractions are detected by means of a force transducer and recorded.
The gall bladder is contracted with the use of a CCK-8 solution at a concentration of 10 ng/ml; the antagonistic activity of the compounds of the invention towards the contracting effect of the CCK is determined with the use of different concentrations, the ED50 value, that is the concentration of the compound in mcg/ml capable of antagonising 50% of the contracting effect of the CCK, being determined.
The results obtained are set out in the following table which gives the compounds tested and the ED50 values which are calculated by the method of regression on a test of at least three experiments for each compound studied.

Cc1ccc(COC(=O)N[C@@H](Cc2c[nH]c3ccccc23)C(=O)O)cc1Cl [Compound 10]
percentage variation in the latency of the pain sensation, 10' [1]: 51.5 ± 48.9% | percentage variation in the latency of the pain sensation, 20' [1]: 58.3 ± 16.5% | percentage variation in the latency of the pain sensation, 30' [1]: 66.0 ± 14.1% | percentage variation in the latency of the pain sensation, 45' [1]: 56.9 ± 17.0% | percentage variation in the latency of the pain sensation, 60' [1]: 56.2 ± 23.5% | percentage variation in the latency of the pain sensation, 90' [1]: 34.2 ± 8.4% | M(10'-90') average percentage variation [1]: 55.5% | Potency ratio relative to morphine alone [1]: 1.86 | Anti CCK-8 activity, ED50 [2]: 88.5 µg/mL

N#Cc1ccc(COC(=O)N[C@@H](Cc2c[nH]c3ccccc23)C(=O)O)cc1 [Compound 11]
percentage variation in the latency of the pain sensation, 10' [1]: 53.4 ± 13.5% | percentage variation in the latency of the pain sensation, 20' [1]: 80.0 ± 13.0% | percentage variation in the latency of the pain sensation, 30' [1]: 90.4 ± 9.6% | percentage variation in the latency of the pain sensation, 45' [1]: 84.9 ± 15.1% | percentage variation in the latency of the pain sensation, 60' [1]: 55.6 ± 18.3% | percentage variation in the latency of the pain sensation, 90' [1]: 50.9 ± 20.7% | M(10'-90') average percentage variation [1]: 72.9% | Potency ratio relative to morphine alone [1]: 2.45 | Anti CCK-8 activity, ED50 [2]: 34.3 µg/mL

O=C(N[C@@H](Cc1c[nH]c2ccccc12)C(=O)O)c1ccc(Cl)cc1 [Compound 12]
percentage variation in the latency of the pain sensation, 10' [1]: 42.2 ± 19.4% | percentage variation in the latency of the pain sensation, 20' [1]: 50.5 ± 17.0% | percentage variation in the latency of the pain sensation, 30' [1]: 69.7 ± 19.8% | percentage variation in the latency of the pain sensation, 45' [1]: 68.9 ± 13.4% | percentage variation in the latency of the pain sensation, 60' [1]: 32.7 ± 20.1% | percentage variation in the latency of the pain sensation, 90' [1]: 16.3 ± 7.4% | M(10'-90') average percentage variation [1]: 49.1% | Potency ratio relative to morphine alone [1]: 1.65 | Anti CCK-8 activity, ED50 [2]: 206.0 µg/mL

O=C(N[C@@H](Cc1c[nH]c2ccccc12)C(=O)O)c1ccc(Br)cc1 [Compound 13]
percentage variation in the latency of the pain sensation, 10' [1]: 26.7 ± 5.6% | percentage variation in the latency of the pain sensation, 20' [1]: 72.6 ± 13.0% | percentage variation in the latency of the pain sensation, 30' [1]: 77.2 ± 10.0% | percentage variation in the latency of the pain sensation, 45' [1]: 86.2 ± 8.9% | percentage variation in the latency of the pain sensation, 60' [1]: 38.8 ± 11.3% | percentage variation in the latency of the pain sensation, 90' [1]: 12.6 ± 9.8% | M(10'-90') average percentage variation [1]: 52.3% | Potency ratio relative to morphine alone [1]: 1.75 | Anti CCK-8 activity, ED50 [2]: 158.0 µg/mL

O=C(N[C@@H](Cc1c[nH]c2ccccc12)C(=O)O)c1ccc(F)cc1 [Compound 14]
percentage variation in the latency of the pain sensation, 10' [1]: 47.9 ± 21.0% | percentage variation in the latency of the pain sensation, 20' [1]: 90.2 ± 9.8% | percentage variation in the latency of the pain sensation, 30' [1]: 80.0 ± 12.5% | percentage variation in the latency of the pain sensation, 45' [1]: 67.7 ± 19.8% | percentage variation in the latency of the pain sensation, 60' [1]: 70.5 ± 18.1% | percentage variation in the latency of the pain sensation, 90' [1]: 61.5 ± 11.8% | M(10'-90') average percentage variation [1]: 69.6% | Potency ratio relative to morphine alone [1]: 2.33 | Anti CCK-8 activity, ED50 [2]: 233.2 µg/mL

O=C(N[C@@H](Cc1c[nH]c2ccccc12)C(=O)O)c1ccc(I)cc1 [Compound 15]
percentage variation in the latency of the pain sensation, 10' [1]: 77.7 ± 13.8% | percentage variation in the latency of the pain sensation, 20' [1]: 81.7 ± 12.3% | percentage variation in the latency of the pain sensation, 30' [1]: 91.0 ± 9.0% | percentage variation in the latency of the pain sensation, 45' [1]: 89.0 ± 11.0% | percentage variation in the latency of the pain sensation, 60' [1]: 70.4 ± 17.2% | percentage variation in the latency of the pain sensation, 90' [1]: 60.3 ± 12.6% | M(10'-90') average percentage variation [1]: 78.3% | Potency ratio relative to morphine alone [1]: 2.63 | Anti CCK-8 activity, ED50 [2]: IN (inactive up to 400 mcg/ml)

O=C(N[C@@H](Cc1c[nH]c2ccccc12)C(=O)O)c1cccc(Cl)c1 [Compound 16]
percentage variation in the latency of the pain sensation, 10' [1]: 25.2 ± 21.8% | percentage variation in the latency of the pain sensation, 20' [1]: 39.5 ± 26.1% | percentage variation in the latency of the pain sensation, 30' [1]: 37.7 ± 22.9% | percentage variation in the latency of the pain sensation, 45' [1]: 33.1 ± 19.9% | percentage variation in the latency of the pain sensation, 60' [1]: 25.9 ± 18.1% | percentage variation in the latency of the pain sensation, 90' [1]: 9.7 ± 11.9% | M(10'-90') average percentage variation [1]: 28.5% | Potency ratio relative to morphine alone [1]: 0.96 | Anti CCK-8 activity, ED50 [2]: 197.5 µg/mL

O=C(N[C@@H](Cc1c[nH]c2ccccc12)C(=O)O)c1ccc(Cl)c(Cl)c1 [Compound 17]
percentage variation in the latency of the pain sensation, 10' [1]: 96.9 ± 4.1% | percentage variation in the latency of the pain sensation, 20' [1]: 100.0 ± 0.0% | percentage variation in the latency of the pain sensation, 30' [1]: 100.0 ± 0.0% | percentage variation in the latency of the pain sensation, 45' [1]: 50.3 ± 10.1% | percentage variation in the latency of the pain sensation, 60' [1]: 85.4 ± 11.5% | percentage variation in the latency of the pain sensation, 90' [1]: 29.6 ± 4.5% | M(10'-90') average percentage variation [1]: 85.0% | Potency ratio relative to morphine alone [1]: 2.85 | Anti CCK-8 activity, ED50 [2]: 398.0 µg/mL

Cc1ccc(C(=O)N[C@@H](Cc2c[nH]c3ccccc23)C(=O)O)cc1 [Compound 18]
percentage variation in the latency of the pain sensation, 10' [1]: 7.8 ± 16.1% | percentage variation in the latency of the pain sensation, 20' [1]: 14.9 ± 17.1% | percentage variation in the latency of the pain sensation, 30' [1]: 42.1 ± 18.3% | percentage variation in the latency of the pain sensation, 45' [1]: 26.6 ± 20.5% | percentage variation in the latency of the pain sensation, 60' [1]: 32.7 ± 25.9% | percentage variation in the latency of the pain sensation, 90' [1]: 41.1 ± 24.3% | M(10'-90') average percentage variation [1]: 27.5% | Potency ratio relative to morphine alone [1]: 0.93 | Anti CCK-8 activity, ED50 [2]: IN (inactive up to 400 mcg/ml)

CCc1ccc(C(=O)N[C@@H](Cc2c[nH]c3ccccc23)C(=O)O)cc1 [Compound 19]
percentage variation in the latency of the pain sensation, 10' [1]: 41.9 ± 12.8% | percentage variation in the latency of the pain sensation, 20' [1]: 43.9 ± 19.5% | percentage variation in the latency of the pain sensation, 30' [1]: 61.3 ± 18.1% | percentage variation in the latency of the pain sensation, 45' [1]: 49.4 ± 19.5% | percentage variation in the latency of the pain sensation, 60' [1]: 28.5 ± 17.0% | percentage variation in the latency of the pain sensation, 90' [1]: 14.4 ± 12.9% | M(10'-90') average percentage variation [1]: 39.9% | Potency ratio relative to morphine alone [1]: 1.34 | Anti CCK-8 activity, ED50 [2]: 135.2 µg/mL

Cc1cccc(C(=O)N[C@@H](Cc2c[nH]c3ccccc23)C(=O)O)c1 [Compound 21]
percentage variation in the latency of the pain sensation, 10' [1]: 30.5 ± 19.7% | percentage variation in the latency of the pain sensation, 20' [1]: 89.0 ± 11.0% | percentage variation in the latency of the pain sensation, 30' [1]: 93.9 ± 6.1% | percentage variation in the latency of the pain sensation, 45' [1]: 85.9 ± 14.1% | percentage variation in the latency of the pain sensation, 60' [1]: 99.2 ± 0.8% | percentage variation in the latency of the pain sensation, 90' [1]: 56.3 ± 17.4% | M(10'-90') average percentage variation [1]: 77.3% | Potency ratio relative to morphine alone [1]: 2.59 | Anti CCK-8 activity, ED50 [2]: IN (inactive up to 400 mcg/ml)

CCCc1ccc(C(=O)N[C@@H](Cc2c[nH]c3ccccc23)C(=O)O)cc1 [Compound 22]
percentage variation in the latency of the pain sensation, 10' [1]: 18.5 ± 5.3% | percentage variation in the latency of the pain sensation, 20' [1]: 39.3 ± 10.5% | percentage variation in the latency of the pain sensation, 30' [1]: 32.2 ± 7.9% | percentage variation in the latency of the pain sensation, 45' [1]: 37.1 ± 13.9% | percentage variation in the latency of the pain sensation, 60' [1]: 35.5 ± 10.0% | percentage variation in the latency of the pain sensation, 90' [1]: 24.5 ± 6.6% | M(10'-90') average percentage variation [1]: 31.2% | Potency ratio relative to morphine alone [1]: 1.05 | Anti CCK-8 activity, ED50 [2]: 25.7 µg/mL

CCCCc1ccc(C(=O)N[C@@H](Cc2c[nH]c3ccccc23)C(=O)O)cc1 [Compound 23]
percentage variation in the latency of the pain sensation, 10' [1]: 47.9 ± 15.7% | percentage variation in the latency of the pain sensation, 20' [1]: 50.3 ± 10.1% | percentage variation in the latency of the pain sensation, 30' [1]: 56.9 ± 20.6% | percentage variation in the latency of the pain sensation, 45' [1]: 67.2 ± 20.9% | percentage variation in the latency of the pain sensation, 60' [1]: 41.1 ± 16.3% | percentage variation in the latency of the pain sensation, 90' [1]: 36.1 ± 18.0% | M(10'-90') average percentage variation [1]: 49.9% | Potency ratio relative to morphine alone [1]: 1.67 | Anti CCK-8 activity, ED50 [2]: 74.0 µg/mL

CC(C)Cc1ccc(C(=O)N[C@@H](Cc2c[nH]c3ccccc23)C(=O)O)cc1 [Compound 24]
percentage variation in the latency of the pain sensation, 10' [1]: 66.9 ± 14.8% | percentage variation in the latency of the pain sensation, 20' [1]: 61.9 ± 17.5% | percentage variation in the latency of the pain sensation, 30' [1]: 84.4 ± 11.6% | percentage variation in the latency of the pain sensation, 45' [1]: 69.1 ± 14.9% | percentage variation in the latency of the pain sensation, 60' [1]: 65.2 ± 11.4% | percentage variation in the latency of the pain sensation, 90' [1]: 32.7 ± 19.9% | M(10'-90') average percentage variation [1]: 63.4% | Potency ratio relative to morphine alone [1]: 2.13 | Anti CCK-8 activity, ED50 [2]: 327.7 µg/mL
